Assay results as given in PMC11400632, “Substrate selectivity and inhibition of the human lysyl hydroxylase JMJD7” (Protein Science : A Publication of the Protein Society, 2024).
Where two headings read alike, the source gives them in different places. Square brackets hold non-standard residues; d marks the D form. Ends that are not written are not given here. Peptide text beside a SMILES is read from it. 4Pal = N[C@@H](Cc1ccncc1)C(=O)O; Orn = NCCC[C@H](N)C(=O)O

Columns and labels:
[1] = target: human Jumonji-C (JmjC) domain-containing protein 7 (JMJD7), residues 1-316 (human) (UniProt P0C870)
Chain of human Jumonji-C (JmjC) domain-containing protein 7 (JMJD7), residues 1-316 (human) (P0C870 whole entry, the tested form may be a part): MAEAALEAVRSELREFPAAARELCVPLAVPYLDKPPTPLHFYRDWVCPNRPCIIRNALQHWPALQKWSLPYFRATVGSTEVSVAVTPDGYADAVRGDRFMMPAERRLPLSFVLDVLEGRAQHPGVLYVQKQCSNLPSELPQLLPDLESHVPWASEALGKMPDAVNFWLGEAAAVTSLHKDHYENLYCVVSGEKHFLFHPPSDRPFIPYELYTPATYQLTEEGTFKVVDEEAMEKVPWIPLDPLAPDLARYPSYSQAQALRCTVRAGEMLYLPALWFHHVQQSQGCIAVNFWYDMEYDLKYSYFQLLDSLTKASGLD

human JMJD7 [2] = target: T1, human JMJD7 (Homo sapiens, UniProt P0C870); assay: MALDI-TOF MS JMJD7 inhibition assay; type: biochemical
T1 construct: human JMJD7 (residues 1–316) with an N‐terminal His6‐tag; His6 (N); made in house; host or cells: Escherichia coli Rosetta (DE3)
T1 sequence (P0C870 whole entry, the tested form may be a part): as above
Protocol: Due to signal overlaps between some DRG1 peptides and the reference DRG1‐Lys substrate, we synthesized a shorter reference substrate peptide (DRG1‐Lys, residues 17–40) for use in the MS‐based inhibition assays. Synthetic DRG1 peptides (residues 16–40, 10 or 50 μM) were preincubated with JMJD7 (200 nM) for 15 min, after which time the DRG1‐Lys substrate (residues 17–40, 5 μM), 2OG (10 μM), FAS […] and LAA […] were added, and the reaction were carried out for 25 min at room temperature. Most of the DRG1 peptides were not active as JMJD7 inhibitors at 10 μM (residual activity of JMJD7 >50%) (Figure S41a,b), with exceptions including the DRG1‐Orn, DRG1‐hGln and DRG1‐4pyrA peptides.
Single point screening assays were as follows; initially, JMJD7 (200 nM) and substituted DRG1 peptide (10 or 50 μM) were incubated for 15 min, followed by the addition of a mixture of the DRG1‐Lys substrate (5 μM), 2OG (10 μM), FAS (10 μM) and LAA (100 μM) in a final volume of 50 μL in Tris‐buffer (pH 7.5) and incubated for additional 25 min at room temperature. […] Reactions were quenched by the addition of 10% (v/v) formic acid and mixed 1:1 with CHCCA matrix (1:1 v/v MeCN:H2O) then analyzed by MALDI‐TIMS‐TOF MS. JMJD7 activity was determined by calculating the integral of hydroxylated peptide and normalized to a control reaction in absence of potential inhibitory peptides. Every experiment was performed in duplicate (n = 2), error bars are reported as SE.

[3] = target: human Jumonji-C (JmjC) domain-containing protein 7 (JMJD7), residues 1-316 (human) (UniProt P0C870); remark: listed apart in the source
[4] = target: human Jumonji-C (JmjC) domain-containing protein 7 (JMJD7), residues 1-316 (human) (UniProt P0C870); remark: listed apart in the source
human JMJD7 [5] = target: T1, human JMJD7; assay: Q-TOF-MS protein-observed analysis of intact JMJD7 (adduct formation); type: binding; settings: 2 μM JMJD7, 20 μM peptide; for JMJD7-peptide adduct formation: Q-TOF-MS of intact protein
Protocol: To investigate inhibition by the DRG1‐Cys/Sec peptides, we performed protein‐observed analysis of JMJD7 (2 μM) in the presence of the DRG1‐Cys/Sec peptides (20 μM) under likely non‐denaturing conditions (Figure 7g). The observed masses correspond to the JMJD7‐DRG1‐Cys (40.79 kDa) and JMJD7‐DRG1‐Sec (40.84 kDa) adducts, implying that DRG1‐Cys/Sec might inhibit JMJD7 via formation of S‐S/Se‐S bonds, plausibly with Cys132, though further work is required to validate this (Figure 7g).

human JMJD7 [6] = target: T1, human JMJD7; assay: MALDI-TOF MS JMJD7 inhibition assay; type: biochemical; remark: listed apart in the source
human JMJD7 [7] = target: T1, human JMJD7; assay: LC-MS assay of JMJD7-catalyzed hydroxylation/oxidation of DRG1 peptides; type: biochemical; settings: 10 μM FAS, 100 μM LAA
Protocol: Initial assays were carried out by incubation of purified recombinant (Markolovic et al., [2018]) human JMJD7 (2 μM) in the presence of a DRG1 derived peptide (10 μM), 2OG (10 μM), ferrous ammonium sulfate (FAS, 10 μM), and L‐ascorbate (LAA, 100 μM) in Tris buffer at pH 7.5 for 2 h at room temperature. Potential conversion to a hydroxylated product (+16 Da mass shift) was monitored by liquid‐chromatography‐mass‐spectrometry (LC–MS). […] The assay results also implied that DRG1‐Orn was hydroxylated, but to a lower extent (~21%) than DRG1‐Lys. […] The alcohol‐containing peptide hydroxynorleucine (DRG1‐HNle), was hydroxylated at relatively low levels (~24%), implying that H‐bonding interactions and positive charge of the N^ɛ‐amino group of lysine are important for efficient binding and catalysis, but that a neutral alcohol can still be accommodated at the active site (Figure 3f) (Markolovic et al., [2018]).
All reagents were procured from Sigma Aldrich. 2‐Oxoglutarate (2OG, 10 mM) and L‐ascorbic acid (LAA, 50 mM) solutions were prepared freshly by dissolving the solids in deionized water. Ferrous ammonium sulfate (FAS) solution was prepared freshly by dissolving FAS at 400 mM in 20 mM HCl with subsequent dilution to 1 mM using deionized water. JMJD7 assays using DRG1 (16–40) based peptides were performed with the following conditions: (i) 2 or 5 μM JMJD7, 10 μM DRG1 peptide, 100 μM LAA, 10 μM FAS, 10 μM 2OG in mM 50 Tris‐buffer (pH 7.5), (ii) 2 μM JMJD7, 10 μM DRG1 peptide, 100 μM LAA, 10 μM FAS, 20 μM 2OG in mM 50 Tris‐buffer (pH 7.5). Reactions were initiated by addition of enzyme to the cosubstrate/substrate solution in a final reaction volume of 50 μL with 2 h incubation at room temperature. A positive control reaction containing enzyme and a validated peptide substrate was included in all screening studies. After 2 h, reactions were stopped by addition of 5 μL of 10% (v/v) LC–MS grade formic acid (Fisher Scientific) and transferred to a 96 well plate (Agilent). Intact mass peptide analysis was performed by LC–MS using an Agilent 1290 infinity II LC system equipped with an Agilent 1290 multisampler and an Agilent 1290 high speed pump and connected to an Agilent 6550 accurate mass iFunnel quadrupole time of flight (Q‐TOF) mass spectrometer. The reaction mixture (4 μL) was injected and loaded onto a ZORBAX RRHD Eclipse Plus C18 column (Agilent). Solvent A consisted of LC–MS grade water containing 0.1% (v/v) formic acid and solvent B consisted of MeCN containing 0.1% (v/v) formic acid. Peptides were separated using a step wise gradient (0 min – 95% solvent A, 1.0 min – 80% solvent A, 3.0 min – 45% solvent A, 4.0 min – 45% solvent A, 5.0 min – 0% solvent A, 6.0 min – 0% solvent A, 7.0 min – 95% solvent A). This was followed by a 3 min elution with 95% solvent A to re‐equilibrate the column. Flow rates were 0.2 mL/min. The mass spectrometer was operated in the positive ion mode with a drying gas temperature (280°C), drying gas flow rate (13 L min^−1), nebulizer pressure (40 psig), sheath gas temperature (350°C), sheath gas flow rate (12 L min^−1), capillary voltage (4000 V), nozzle voltage (1000 V). Data were analyzed using Agilent MassHunter Qualitative Analysis (Version B.07.00) software.

[8] = 200 nM JMJD7 preincubated 15 min with peptide (1 nM–150 μM), 5 μM DRG1-Lys (17–40) substrate, 10 μM 2OG, 25 min, room temperature, Tris pH 7.5, MALDI MS, duplicate (n = 2), ± SE, read-out: IC50 (JMJD7 inhibition, with 15 min preincubation)

DRG1-Cys peptide (DRG1 residues 16-40, Cys in place of Lys22)
IC50 of inhibition of JMJD7-catalysed hydroxylation of the DRG1-Lys substrate, MALDI-TOF MS, 15 min preincubation [1]: 1.25 µM
IC50 of inhibition of JMJD7-catalysed hydroxylation of the DRG1-Lys substrate, MALDI-TOF MS, without preincubation [1]: 16 µM

DRG1‐Cys (residues 19–25): shorter peptide fragment DRG1-Cys (residues 19–25) (QKNCATA-NH2)
inhibition of JMJD7 by the shorter peptide fragment (human JMJD7 [2]; standard conditions): No inhibition

DRG1-LysE peptide (DRG1 residues 16-40, (E)-dehydrolysine in place of Lys22)
Km of JMJD7-catalysed hydroxylation, steady-state kinetics by SPE-MS (0.1-5.0 μM peptide, 100 nM JMJD7) [3]: 3.1 µM

DRG1-4pyrA peptide (DRG1 residues 16-40, 4pyrA in place of Lys22)
IC50 of inhibition of JMJD7-catalysed (200 nM) hydroxylation of the DRG1-Lys substrate (residues 17-40, 5 μM), MALDI-TOF MS, 15 min preincubation [4]: 15.2 µM

ARTQKNCATAHHLGLLKARLAKLRR-NH2 [DRG1‐Cys]
JMJD7-peptide cross-linking in the presence of DTT (human JMJD7 [5]; DTT in the buffer, Q-TOF-MS): no cross‐linking is observed
JMJD7-peptide adduct formation (human JMJD7 [5]): observed in lower extent at 1 min
IC50 (human JMJD7 [6]; [8]): 1.25 µM
IC50 (human JMJD7 [6]; same assay conditions but without preincubation, read-out: IC50 (JMJD7 inhibition, without preincubation)): 16 µM
single point inhibition of JMJD7 under reducing conditions (human JMJD7 [2]; 10 and 50 μM peptide, DTT or TCEP (1 mM) as reductant in the reaction buffer): lack inhibitory activity

ARTQKNSerATAHHLGLLKARLAKLRR [DRG1‐Ser, 25-mer DRG1 (16–40) peptide with Ser at position 22]
JMJD7-peptide adduct formation (human JMJD7 [5]): Adduct formation was not observed
degree of oxidation (+16 Da) of cysteine/methionine analog peptides by JMJD7 (human JMJD7 [7]; 2 μM JMJD7, 10 μM peptide, 10 μM 2OG): did also not undergo oxidation

DRG1-Orn peptide (DRG1 residues 16-40, Orn in place of Lys22)
IC50 of inhibition of JMJD7-catalysed (200 nM) hydroxylation of the DRG1-Lys substrate (residues 17-40, 5 μM), MALDI-TOF MS, 15 min preincubation [4]: 14 µM

CC(C)C[C@H](NC(=O)CNC(=O)[C@H](CC(C)C)NC(=O)[C@H](Cc1c[nH]cn1)NC(=O)[C@H](Cc1c[nH]cn1)NC(=O)[C@H](C)NC(=O)[C@@H](NC(=O)[C@H](C)NC(=O)[C@H](Cc1ccncc1)NC(=O)[C@H](CC(N)=O)NC(=O)[C@H](CCCCN)NC(=O)[C@H](CCC(N)=O)NC(=O)[C@@H](NC(=O)[C@H](CCCNC(=N)N)NC(=O)[C@H](C)N)[C@@H](C)O)[C@@H](C)O)C(=O)N[C@@H](CC(C)C)C(=O)N[C@@H](CCCCN)C(=O)N[C@@H](C)C(=O)N[C@@H](CCCNC(=N)N)C(=O)N[C@@H](CC(C)C)C(=O)N[C@@H](C)C(=O)N[C@@H](CCCCN)C(=O)N[C@@H](CC(C)C)C(=O)N[C@@H](CCCNC(=N)N)C(=O)N[C@@H](CCCNC(=N)N)C(N)=O [DRG1‐4pyrA] (H-ARTQKN[4Pal]ATAHHLGLLKARLAKLRR-NH2)
IC50 (human JMJD7 [6]; [8]): 15.2 µM

CC(C)C[C@H](NC(=O)CNC(=O)[C@H](CC(C)C)NC(=O)[C@H](Cc1c[nH]cn1)NC(=O)[C@H](Cc1c[nH]cn1)NC(=O)[C@H](C)NC(=O)[C@@H](NC(=O)[C@H](C)NC(=O)[C@H](CCCN)NC(=O)[C@H](CC(N)=O)NC(=O)[C@H](CCCCN)NC(=O)[C@H](CCC(N)=O)NC(=O)[C@@H](NC(=O)[C@H](CCCNC(=N)N)NC(=O)[C@H](C)N)[C@@H](C)O)[C@@H](C)O)C(=O)N[C@@H](CC(C)C)C(=O)N[C@@H](CCCCN)C(=O)N[C@@H](C)C(=O)N[C@@H](CCCNC(=N)N)C(=O)N[C@@H](CC(C)C)C(=O)N[C@@H](C)C(=O)N[C@@H](CCCCN)C(=O)N[C@@H](CC(C)C)C(=O)N[C@@H](CCCNC(=N)N)C(=O)N[C@@H](CCCNC(=N)N)C(N)=O [DRG1‐Orn] (H-ARTQKN[Orn]ATAHHLGLLKARLAKLRR-NH2)
extent of hydroxylation by JMJD7 at higher 2OG concentration (human JMJD7 [7]; 2 μM JMJD7, 10 μM peptide, 20 μM 2OG, pH 7.5, 2 h incubation): ~ 31%
extent of hydroxylation (+16 Da) by JMJD7 (human JMJD7 [7]; standard conditions: 2 μM JMJD7, 10 μM DRG1 peptide, 10 μM 2OG, Tris pH 7.5, 2 h, room temperature): ~ 21%
IC50 (human JMJD7 [6]; [8]): 14 µM
single point inhibition of JMJD7 at 50 μM peptide (human JMJD7 [2]; 50 μM DRG1 peptide, 200 nM JMJD7, 15 min preincubation, 5 μM DRG1-Lys substrate): clear inhibition

DRG1-hGln peptide (DRG1 residues 16-40, hGln in place of Lys22)
IC50 of inhibition of JMJD7-catalysed (200 nM) hydroxylation of the DRG1-Lys substrate (residues 17-40, 5 μM), MALDI-TOF MS, 15 min preincubation [4]: 7.68 µM

DRG1-Sec peptide (DRG1 residues 16-40, selenocysteine in place of Lys22)
IC50 of inhibition of JMJD7-catalysed hydroxylation of the DRG1-Lys substrate, MALDI-TOF MS, 15 min preincubation [1]: 1.46 µM
IC50 of inhibition of JMJD7-catalysed hydroxylation of the DRG1-Lys substrate, MALDI-TOF MS, without preincubation [1]: 2.8 µM

B1: DRG1-Lys substrate peptide (DRG1 residues 16-40) (peptide)
peptide: ARTQKNKATAHHLGLLKARLAKLRR-NH2
Km of JMJD7-catalysed hydroxylation, steady-state kinetics by SPE-MS (0.1-5.0 μM peptide, 100 nM JMJD7) [3]: 1.4 µM
